Results: ChEMBL document CHEMBL1201862, “PubChem BioAssay data set” (2004)
Calls of active or inactive are those of the source.

What was measured:
[1] = target: T1, Sentrin-specific protease 8 (Homo sapiens, UniProt Q96LD8); assay type: functional;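 also: luminescence read-out of SENP8 inhibition, dose-response confirmation following an ultra-high-throughput screen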
T1 sequence (Q96LD8 whole entry): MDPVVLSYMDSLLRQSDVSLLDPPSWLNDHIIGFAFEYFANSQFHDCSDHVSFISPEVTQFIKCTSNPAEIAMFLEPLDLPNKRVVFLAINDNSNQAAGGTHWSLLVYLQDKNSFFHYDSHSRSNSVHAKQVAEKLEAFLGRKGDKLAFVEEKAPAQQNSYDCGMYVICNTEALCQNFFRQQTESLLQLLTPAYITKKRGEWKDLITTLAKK

Caspase-3 = target: T2, Caspase-3 (Homo sapiens, UniProt P42574); assay type: functional;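 also: Dose-response selectivity test against caspase-3 for candidate inhibitors of sentrin-specific proteases (SENPs)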
T2 sequence (P42574 whole entry): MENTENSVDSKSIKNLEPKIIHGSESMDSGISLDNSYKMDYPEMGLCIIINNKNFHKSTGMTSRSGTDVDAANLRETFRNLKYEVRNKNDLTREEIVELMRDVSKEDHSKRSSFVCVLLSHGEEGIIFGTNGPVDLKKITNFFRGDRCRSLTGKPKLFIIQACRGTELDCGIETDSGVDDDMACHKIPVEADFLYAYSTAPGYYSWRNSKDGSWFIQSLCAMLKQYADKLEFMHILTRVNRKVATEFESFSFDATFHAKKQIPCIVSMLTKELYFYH

[2] = target: T3, Sentrin-specific protease 7 (Homo sapiens, UniProt Q9BQF6); assay type: functional;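 also: Luminescence-based dose-response confirmation of ultra-high-throughput screening hits, measuring inhibition of SENP7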
T3 sequence (Q9BQF6 whole entry): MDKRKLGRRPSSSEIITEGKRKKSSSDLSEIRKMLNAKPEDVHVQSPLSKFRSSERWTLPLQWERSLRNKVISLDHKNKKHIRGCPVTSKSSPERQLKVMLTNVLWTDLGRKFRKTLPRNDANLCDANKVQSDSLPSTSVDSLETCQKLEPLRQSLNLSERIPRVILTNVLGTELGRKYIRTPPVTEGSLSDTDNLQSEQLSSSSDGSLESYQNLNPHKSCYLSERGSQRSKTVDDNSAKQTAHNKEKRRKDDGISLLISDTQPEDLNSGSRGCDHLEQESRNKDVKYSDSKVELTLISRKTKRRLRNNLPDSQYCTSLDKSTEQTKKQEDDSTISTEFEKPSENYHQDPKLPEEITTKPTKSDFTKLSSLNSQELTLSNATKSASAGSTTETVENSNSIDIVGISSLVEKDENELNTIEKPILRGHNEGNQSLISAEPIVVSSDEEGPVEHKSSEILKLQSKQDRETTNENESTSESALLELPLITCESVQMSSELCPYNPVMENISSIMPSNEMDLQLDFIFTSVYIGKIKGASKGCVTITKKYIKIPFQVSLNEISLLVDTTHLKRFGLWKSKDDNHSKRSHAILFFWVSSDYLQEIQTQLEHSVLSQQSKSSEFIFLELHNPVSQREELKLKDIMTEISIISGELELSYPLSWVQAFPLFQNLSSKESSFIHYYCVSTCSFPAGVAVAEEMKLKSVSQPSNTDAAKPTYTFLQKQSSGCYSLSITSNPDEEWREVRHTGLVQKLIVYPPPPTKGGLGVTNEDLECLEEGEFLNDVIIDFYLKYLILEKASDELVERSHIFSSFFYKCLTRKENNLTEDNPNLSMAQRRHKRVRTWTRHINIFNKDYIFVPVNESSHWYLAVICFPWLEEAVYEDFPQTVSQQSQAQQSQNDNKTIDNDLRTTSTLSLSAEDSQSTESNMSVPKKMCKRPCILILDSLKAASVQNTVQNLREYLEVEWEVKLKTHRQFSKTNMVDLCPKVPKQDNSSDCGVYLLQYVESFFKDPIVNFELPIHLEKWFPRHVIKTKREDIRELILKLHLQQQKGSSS

[3] = target: T4, Sentrin-specific protease 6 (Homo sapiens, UniProt Q9GZR1); assay type: functional;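 also: Luminescence-based dose-response confirmatory assay of SENP6 inhibition, following up an ultra-high-throughput screen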
T4 sequence (Q9GZR1 whole entry): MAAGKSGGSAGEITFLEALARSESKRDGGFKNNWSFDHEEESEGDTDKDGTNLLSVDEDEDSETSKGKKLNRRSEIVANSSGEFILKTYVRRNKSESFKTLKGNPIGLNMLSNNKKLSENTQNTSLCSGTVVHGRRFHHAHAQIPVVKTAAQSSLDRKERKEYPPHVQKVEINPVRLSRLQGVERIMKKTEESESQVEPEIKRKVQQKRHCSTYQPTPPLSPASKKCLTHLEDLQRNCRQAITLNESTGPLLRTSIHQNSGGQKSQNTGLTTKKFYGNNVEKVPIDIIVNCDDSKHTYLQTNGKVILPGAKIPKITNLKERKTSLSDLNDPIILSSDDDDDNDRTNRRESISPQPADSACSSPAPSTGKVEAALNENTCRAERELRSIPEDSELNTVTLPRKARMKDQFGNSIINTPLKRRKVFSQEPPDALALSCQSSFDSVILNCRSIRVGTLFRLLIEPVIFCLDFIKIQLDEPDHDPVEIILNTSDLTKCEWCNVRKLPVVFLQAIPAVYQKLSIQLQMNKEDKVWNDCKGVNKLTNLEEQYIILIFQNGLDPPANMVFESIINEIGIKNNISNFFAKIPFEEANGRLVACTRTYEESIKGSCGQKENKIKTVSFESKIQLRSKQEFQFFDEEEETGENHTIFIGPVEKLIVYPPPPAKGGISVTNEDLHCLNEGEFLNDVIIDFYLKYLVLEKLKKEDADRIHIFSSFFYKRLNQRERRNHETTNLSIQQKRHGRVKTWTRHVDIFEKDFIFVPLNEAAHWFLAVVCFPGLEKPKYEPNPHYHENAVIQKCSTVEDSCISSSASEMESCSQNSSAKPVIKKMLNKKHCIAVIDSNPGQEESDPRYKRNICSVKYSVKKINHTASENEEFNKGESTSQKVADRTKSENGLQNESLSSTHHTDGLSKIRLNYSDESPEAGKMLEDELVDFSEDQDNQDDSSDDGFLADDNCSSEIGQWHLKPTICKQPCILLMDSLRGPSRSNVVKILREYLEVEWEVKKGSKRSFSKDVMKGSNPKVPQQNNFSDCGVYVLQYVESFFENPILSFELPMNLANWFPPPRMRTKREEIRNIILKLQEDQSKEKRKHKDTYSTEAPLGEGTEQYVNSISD

CHO = experiment: cytotoxicity in TLR9-MyD88 CHO cells, dose response, cytotoxicity control for TLR9-MyD88 binding inhibitor project, cell-based, luminescence (AID 588339); assay type: functional, hamster; details: Cricetulus griseus;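 also: CHO cells stably coexpressing TLR9 and MyD88 fusions from primary screen; compound exposure lasted 48 hours before viability readout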
Beta Lactamase = Beta Lactamase (Pseudomonas aeruginosa, UniProt Q932Y6); experiment: beta-lactamase reporter inhibitor potency, dose response, artefact control for TLR9-MyD88 binding inhibitor project, BLA reporter cells, FRET fluorescence (AID 588341); assay type: cell-based;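 also: cell based assay in CHO-K1 cells stably expressing beta-lactamase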
Beta Lactamase, sequence (Q932Y6 whole entry): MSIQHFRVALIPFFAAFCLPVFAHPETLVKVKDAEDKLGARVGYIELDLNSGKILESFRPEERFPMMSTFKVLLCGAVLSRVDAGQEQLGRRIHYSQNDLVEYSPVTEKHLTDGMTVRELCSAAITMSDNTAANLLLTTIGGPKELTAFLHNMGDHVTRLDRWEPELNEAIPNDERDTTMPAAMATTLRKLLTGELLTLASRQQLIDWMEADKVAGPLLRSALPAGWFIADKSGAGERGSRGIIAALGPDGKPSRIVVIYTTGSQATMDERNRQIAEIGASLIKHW

[4] = Luminescence Cell-Based Dose Confirmation HTS to Identify Inhibitors of Platelet Dense Granule Release. [Related pubchem assays: 1663 (Primary HTS), 1678 (Summary of Project)]; assay type: functional
[5] = target: Luciferin 4-monooxygenase (Photinus pyralis, UniProt P08659); experiment: firefly luciferase enzyme inhibitors, dose response, biochemical, luminescence (AID 1891)
Luciferin 4-monooxygenase, sequence (P08659 whole entry): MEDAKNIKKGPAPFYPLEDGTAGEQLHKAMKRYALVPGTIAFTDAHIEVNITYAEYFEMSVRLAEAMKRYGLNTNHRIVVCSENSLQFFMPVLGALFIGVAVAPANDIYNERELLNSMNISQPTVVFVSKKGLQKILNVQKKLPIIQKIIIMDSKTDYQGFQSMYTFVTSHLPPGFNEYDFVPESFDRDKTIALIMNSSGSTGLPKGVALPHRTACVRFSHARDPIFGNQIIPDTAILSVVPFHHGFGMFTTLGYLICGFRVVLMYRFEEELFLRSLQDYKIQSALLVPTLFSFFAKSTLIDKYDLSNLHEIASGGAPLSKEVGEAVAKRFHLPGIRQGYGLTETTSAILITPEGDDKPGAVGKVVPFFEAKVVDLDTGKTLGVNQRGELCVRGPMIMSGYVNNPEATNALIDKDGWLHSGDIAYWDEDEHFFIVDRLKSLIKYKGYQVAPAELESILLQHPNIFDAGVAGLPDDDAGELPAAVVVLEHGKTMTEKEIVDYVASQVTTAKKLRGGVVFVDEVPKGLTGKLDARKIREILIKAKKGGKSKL

[6] = target: Endoplasmic reticulum aminopeptidase 1 (Homo sapiens, UniProt Q9NZ08); experiment: ERAP1 aminopeptidase inhibitors, dose response, biochemical, cherry-pick, set 2, plate reader (AID 743314)
Endoplasmic reticulum aminopeptidase 1, sequence (Q9NZ08 whole entry): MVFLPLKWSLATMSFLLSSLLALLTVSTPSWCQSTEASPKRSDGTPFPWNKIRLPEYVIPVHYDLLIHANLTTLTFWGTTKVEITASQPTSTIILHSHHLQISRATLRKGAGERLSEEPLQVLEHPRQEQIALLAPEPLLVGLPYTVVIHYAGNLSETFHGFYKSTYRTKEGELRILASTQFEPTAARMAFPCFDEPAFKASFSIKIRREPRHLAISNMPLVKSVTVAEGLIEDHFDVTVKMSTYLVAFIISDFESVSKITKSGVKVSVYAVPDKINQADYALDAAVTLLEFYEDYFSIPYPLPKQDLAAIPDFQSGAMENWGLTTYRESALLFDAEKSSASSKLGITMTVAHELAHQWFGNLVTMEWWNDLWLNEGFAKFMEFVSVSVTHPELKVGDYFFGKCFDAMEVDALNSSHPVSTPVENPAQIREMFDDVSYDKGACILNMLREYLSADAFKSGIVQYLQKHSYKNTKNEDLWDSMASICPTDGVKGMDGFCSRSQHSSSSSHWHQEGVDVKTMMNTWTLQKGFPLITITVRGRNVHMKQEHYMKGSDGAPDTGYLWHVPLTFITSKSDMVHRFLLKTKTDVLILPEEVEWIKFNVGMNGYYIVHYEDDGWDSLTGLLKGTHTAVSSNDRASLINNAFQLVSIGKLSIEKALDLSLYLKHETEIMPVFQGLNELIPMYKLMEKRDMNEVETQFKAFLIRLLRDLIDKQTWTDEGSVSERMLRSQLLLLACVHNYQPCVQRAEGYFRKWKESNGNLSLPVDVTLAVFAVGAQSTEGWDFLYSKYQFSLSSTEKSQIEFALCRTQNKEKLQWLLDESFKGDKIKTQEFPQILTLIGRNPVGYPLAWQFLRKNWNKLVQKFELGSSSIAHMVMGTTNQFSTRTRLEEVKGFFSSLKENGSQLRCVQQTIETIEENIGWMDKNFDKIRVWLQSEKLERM

[7] = target: T5, Apoptotic protease-activating factor 1 (Homo sapiens, UniProt O14727); assay type: functional
T5 sequence (O14727 whole entry): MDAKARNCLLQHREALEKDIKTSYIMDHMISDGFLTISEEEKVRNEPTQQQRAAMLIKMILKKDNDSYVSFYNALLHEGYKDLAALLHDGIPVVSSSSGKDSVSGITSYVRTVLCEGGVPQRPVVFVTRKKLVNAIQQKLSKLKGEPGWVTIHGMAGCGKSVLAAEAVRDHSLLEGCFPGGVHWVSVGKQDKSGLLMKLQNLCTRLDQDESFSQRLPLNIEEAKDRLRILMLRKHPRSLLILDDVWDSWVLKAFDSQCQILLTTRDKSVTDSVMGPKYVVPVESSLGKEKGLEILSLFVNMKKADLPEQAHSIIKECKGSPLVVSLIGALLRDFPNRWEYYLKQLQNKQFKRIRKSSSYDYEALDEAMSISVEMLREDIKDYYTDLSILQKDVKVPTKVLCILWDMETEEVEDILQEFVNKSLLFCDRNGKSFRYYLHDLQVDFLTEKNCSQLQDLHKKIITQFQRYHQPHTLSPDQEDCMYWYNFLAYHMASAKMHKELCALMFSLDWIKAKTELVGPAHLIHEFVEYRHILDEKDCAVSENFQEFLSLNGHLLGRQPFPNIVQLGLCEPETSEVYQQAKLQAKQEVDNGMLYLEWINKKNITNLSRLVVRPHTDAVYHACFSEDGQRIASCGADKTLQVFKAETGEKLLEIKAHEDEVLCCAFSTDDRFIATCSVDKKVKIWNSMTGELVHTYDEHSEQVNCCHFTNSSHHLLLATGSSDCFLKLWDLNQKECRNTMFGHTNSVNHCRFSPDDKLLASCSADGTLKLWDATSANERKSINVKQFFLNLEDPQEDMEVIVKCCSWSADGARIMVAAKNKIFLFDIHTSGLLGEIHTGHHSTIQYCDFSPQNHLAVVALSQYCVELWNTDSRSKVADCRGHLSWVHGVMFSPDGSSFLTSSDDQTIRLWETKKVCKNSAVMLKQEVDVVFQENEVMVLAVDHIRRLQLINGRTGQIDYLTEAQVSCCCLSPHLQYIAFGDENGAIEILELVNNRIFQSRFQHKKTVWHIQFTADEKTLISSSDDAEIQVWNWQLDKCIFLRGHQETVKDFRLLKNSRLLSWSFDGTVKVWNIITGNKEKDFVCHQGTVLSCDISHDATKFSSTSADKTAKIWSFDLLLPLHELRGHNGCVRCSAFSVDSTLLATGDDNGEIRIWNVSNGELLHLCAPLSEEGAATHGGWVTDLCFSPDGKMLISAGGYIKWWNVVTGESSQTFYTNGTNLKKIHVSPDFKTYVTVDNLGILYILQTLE

Compound | IC50 (Caspase-3) | IC50 [2] | IC50 [3] | IC50 [1] | IC50 (CHO) | IC50 (Beta Lactamase) | further results
CC(=O)Oc1cccc(N2C(=O)c3cccc4c([N+](=O)[O-])ccc(c34)C2=O)c1 |  |  |  |  | 5.26 µM (active) | 4.5 µM (active) | 
COc1ccc(-c2cc3ccc(O)cc3oc2=O)cc1OC |  |  |  |  | > 49.8 µM (inactive) | 5.23 µM (active) | EC50 [4]: 0.335 µM (active); EC50 [5]: 1.23 µM (active); AC50 [6]: 3.21 µM (active)
CCN(CC(=O)Nc1c(F)cccc1F)C(=O)Cc1ccsc1 |  |  |  |  |  |  | IC50 [7]: > 100 µM (inactive)

Now from value to compound, other results behind:

IC50 (Caspase-3) | IC50 [2] | IC50 [3] | Compound | IC50 [1] | IC50 (CHO) | IC50 (Beta Lactamase) | further results
28.2 µM (active) | 6.55 µM (active) | 33.2 µM (active) | O=C1CC(/C=C/c2ccccc2)=Nc2ccccc2N1 | 48.1 µM (active) |  |  | 
40.7 µM (active) | 4.75 µM (active) | 4.89 µM (active) | COc1ccc(-c2cn(CCC(=O)O)c(C)n2)cc1 | 4.56 µM (active) |  |  | 
